Experimental data reported in patent US7384625B2, “Method and composition for rejuvenating hair, nails, tissues, cells and organs by ex-vivo or immersive treatment” (Farington Pharmaceuticals, LLC, priority 2001, dated 2008).
“Also recorded” adds a separate entry of the source.

Experiments:
[1] = Tissue diffusion coefficient rejuvenation of ex vivo donor lungs, tested in the recipient patient after transplantation; conditions: ex vivo organ flushed once with cooled preservation solution containing 0.01 to 1.0 mM; testing in recipient patient
Method: The following is an illustration of a methodology that can be used to rejuvenate ex vivo and prior to transplantation to a recipient patient the lungs removed from a donor cadaver aged 21 years or more. […] Individuals' deformability and diffusion characteristics can be characterized by using the standard methodology of determination of the lung diffusing capacity for carbon monoxide (e.g., Chang et al., Chest (1992) 102:139-42). The diffusing capacity is measured in the supine patient using a single breath of carbon monoxide (0.3%) held for ten seconds using a CPI 5000 IV (Gould Instruments, Houston, Tex.), corrected for alveolar volume. A young subject (20 years old) will have approximately a 40% higher diffusion coefficient for carbon monoxide compared to older subjects (60 yrs). The ex vivo organ is flushed once with a cooled preservation solution containing 3-(2-phenyl-2-oxoethyl)-4,5-dimethylthiazolium chloride at a concentration of 0.01 to 1.0 mM.

[2] = Tendon rejuvenation: elasticity in a materials testing device before and after ex vivo exposure; design: species or system hen; conditions: FIG. 2
Method: The distensibility (i.e, elasticity, rigidity, shear, tensile strength, compression, etc.) of hair, nails, tendons, etc. may be determined using widely available commercial devices, such as manufactured by Instron. Alternatively, other test methods known to a practitioner of the art may be employed. The elasticity of the Achilles tendon of a one year old hen was determined in a materials testing device before and after ex vivo exposure to 3-(2-phenyl-2-oxoethyl)-4,5-dimethylthiazolium chloride (1 mM) in a bath for 15 minutes.

[3] = Hair deformability: stress vs strain of bending individual hairs before and after treatment; conditions: FIG. 1
Text: Methodology for Determination of Stress vs Strain Relationship (Stiffness) The distensibility (i.e, elasticity, rigidity, shear, tensile strength, compression, etc.) of hair, nails, tendons, etc. may be determined using widely available commercial devices, such as manufactured by Instron. Alternatively, other test methods known to a practitioner of the art may be employed. The test assay for determining whether hair has been “rejuvenated” for the present invention is the following. Individual scalp hairs were cemented into the ends of glass capillary tubes such that several centimeters of the shaft protruded from the end. This hair was then trimmed to extend 18 mm from the end of the tube. The unit was then inserted into a micropipette positioner for study. Evaluation consisted of bending the hair by applying a specified force and displacement. Thus, this determination of stress vs strain of bending assessed elasticity, compressibility, and shear of each hair shaft. Each hair served as its own control, with baseline and post-treatment properties assessed and directly compared. A 1 mm thick plate with a 0.5 mm diameter hole drilled through was attached to the surface of an isometric strain gauge. To perform each measurement, the capillary tube was placed over the fenestrated plate and the hair end inserted into the hole in the plate without touching the strain gauge. The hair was then straightened, if necessary, such that its axis formed a 10 degree angle with respect to vertical. Once positioned, the hair was then lowered onto the surface of the strain gauge. The force required to bend each hair a specified distance was determined over a wide range of displacements. From the stress vs strain relationships thus derived, the work to bend each hair under different treatment regimens can be directly compared. For purposes of the present invention, the term “rejuvenated” hair means an improvement of at least 20% in the measured value of the treated hair, toward the values seen in young, undamaged hair (i.e. healthy). […] The stress versus strain relationship was determined as a baseline. […]

Structure (SMILES): Cc1sc[n+](CC(=O)c2ccccc2)c1C.[Cl-] [3-(2-phenyl-2-oxoethyl)-4,5-dimethylthiazolium chloride]
- deformability of transplanted lungs [1]: improved
- diffusional capacity of transplanted lungs [1]: improved
- distensibility of tendon ([2]; 1 mM bath for 15 minutes ex vivo, post-treatment): improved; also recorded: significantly increased
- strain of treated tendon as percent of the strain of the untreated tendon ([2]; 1 mM bath for 15 minutes ex vivo, stress greater than 0.04): about 50%
- tensile strength of tendon ([2]; after treatment): improved
- distensibility of hair ([3]; 1 mM, 15 minutes, after treatment vs baseline): increased distensibility
- stiffness of hair ([3]; after treatment): decreases the stiffness
- reduction of resulting strain versus before treatment ([3]; hair immersed in 1 mM solution for 15 minutes, stress greater than 0.08): about 50%
